Test results as given in article PMC6631792, “In Vitro and In Vivo Anti-Breast Cancer Activities of Some Newly Synthesized 5-(thiophen-2-yl)thieno-[2,3-d]pyrimidin-4-one Candidates” (Molecules, 2019).
Where two headings read alike, the source gives them in different places.

Tests used:
[1] = Average animal weight in MCF-7 mouse xenograft model; assay type: in vivo; details: nude mice with MCF-7 xenograft, i.p.; for Average Weight of Animals in Grams after Days 0: day 0; for Average Weight of Animals in Grams after Days 2: day 2; for Average Weight of Animals in Grams after Days 4: day 4; for Average Weight of Animals in Grams after Days 6: day 6; for Average Weight of Animals in Grams after Days 8: day 8; for Average Weight of Animals in Grams after Days 10: day 10; for Average Weight of Animals in Grams after Days 12: day 12; for Average Weight of Animals in Grams after Days 14: day 14; for Average Weight of Animals in Grams after Days 16: day 16; for Average Weight of Animals in Grams after Days 18: day 18; for Average Weight of Animals in Grams after Days 20: day 20; for Average Weight of Animals in Grams after Days 22: day 22
Text: “In this work, MCF-7 mouse xenograft model was used. The animal protocol was approved by the Institutional Animal Use Ethics and Care Committee of the University of Alabama at Birmingham (50-01-05-08B). Female athymic pathogen-free nude mice (nu/nu, 4–6 weeks) were purchased from Frederick Cancer Research and Development Center (Frederick, MD, USA). To establish MCF-7 human breast cancer xenografts, each of the female nude mice was first implanted with a 60-day (subcutaneously, s.c.) slow release estrogen pellet (SE-121, 1.7 mg […]/pellet; Innovative Research of America, Sarasota, FL, USA). After 24 h, grown cells were harvested, washed twice with serum-free medium, resuspended, and injected subcutaneously (5 million cells/0.2 mL) into the left inguinal area of the mice. During the experiment, animals were checked periodically and the percentages of tumor growth, as well as animal weights, were recorded. Every 48 h, the size of the tumor was recorded by measuring two perpendicular diameters of the tumor and tumor volume was calculated according to Wang et al. [46]”.
“Treated animals and control groups (7–10 mice/group) received different compounds and vehicles, respectively. The tested compounds were dissolved in PEG400:ethanol:saline (57.1:14.3:28.6, v/v/v), and injected intraperitoneal (i.p.) at doses of […], 3 d/wk for 3 weeks. The higher dose (10 µM/kg/d, 3 d/wk) inhibited MCF-7 xenograft tumor growth”.

MCF-7 cells = test: MTT cytotoxic assay on MCF-7 cells; assay type: cell-based, Human
Text: “Human breast cancer cells (MCF-7) and normal non-tumorigenic MCF-10A cells were used throughout the work. Cells were obtained from ATCC, Gaithersburg, MD, USA. Standard MTT assay was used to explore the possible cytotoxic effects of the synthesized compounds [41, 42]. Medium composition, cultivation conditions and assay performance were exactly the same as our previous work. […] After MTT addition, the absorbance of the dissolved formazan crystals was read at 570 nm. The IC50 values were obtained with linear regression equations using Origin® 6.1 software (Origin Lab Corporation, Northampton, MA, USA)”.

Row | Compound | Average Weight of Animals in Grams after Days 0 [1] | Average Weight of Animals in Grams after Days 2 [1] | Average Weight of Animals in Grams after Days 4 [1] | Average Weight of Animals in Grams after Days 6 [1] | Average Weight of Animals in Grams after Days 8 [1] | Average Weight of Animals in Grams after Days 10 [1] | Average Weight of Animals in Grams after Days 12 [1] | Average Weight of Animals in Grams after Days 14 [1] | Average Weight of Animals in Grams after Days 16 [1] | Average Weight of Animals in Grams after Days 18 [1] | Average Weight of Animals in Grams after Days 20 [1] | Average Weight of Animals in Grams after Days 22 [1] | IC50 (MCF-7 cells; Homo sapiens, MCF7) | IC50 (MCF-7 cells)
1 | Milaplatin [reference compound] |  |  |  |  |  |  |  |  |  |  |  |  |  | 18.43 ± 0.13 µM
2 | N.N.[Cl][Pt][Cl] [Cisplatin, reference compound] |  |  |  |  |  |  |  |  |  |  |  |  |  | 13.34 ± 0.11 µM
3 | CC(=O)NNC(=O)Cn1cnc2scc(-c3cccs3)c2c1=O [Compound 13, N′-acetyl-2-(4-oxo-5-(thiophen-2-yl)thieno[2,3-d]pyrimidin-3(4H)-yl)aceto-hydrazide] | 25.4 Grams | 25.4 Grams | 25.4 Grams | 25.4 Grams | 25.4 Grams | 25.3 Grams | 25.3 Grams | 25.3 Grams | 25.3 Grams | 25.3 Grams | 25.3 Grams | 25.3 Grams | 3.64 ± 0.074 µM | 

The next lines start with results.

Row | Average Weight of Animals in Grams after Days 0 [1] | Average Weight of Animals in Grams after Days 2 [1] | Average Weight of Animals in Grams after Days 4 [1] | Average Weight of Animals in Grams after Days 6 [1] | Average Weight of Animals in Grams after Days 8 [1] | Average Weight of Animals in Grams after Days 10 [1] | Average Weight of Animals in Grams after Days 12 [1] | Average Weight of Animals in Grams after Days 14 [1] | Average Weight of Animals in Grams after Days 16 [1] | Average Weight of Animals in Grams after Days 18 [1] | Average Weight of Animals in Grams after Days 20 [1] | Average Weight of Animals in Grams after Days 22 [1] | Compound | IC50 (MCF-7 cells; Homo sapiens, MCF7) | IC50 (MCF-7 cells)
4 | 22.9 Grams | 22.9 Grams | 22.9 Grams | 22.8 Grams | 22.8 Grams | 22.7 Grams | 22.8 Grams | 22.7 Grams | 22.9 Grams | 22.6 Grams | 22.6 Grams | 22.5 Grams | O=c1oc(Cn2cnc3scc(-c4cccs4)c3c2=O)nc2ccccc12 [Compound 5, 2-((4-oxo-5-(thiophen-2-yl)thieno[2,3-d]pyrimidin-3(4H)-yl)methyl)-4H-benzo[d]-[1,3] oxazin-4-one] | 4.76 ± 0.087 µM | 
5 | 26.1 Grams | 26.1 Grams | 26.1 Grams | 25.8 Grams | 25.8 Grams | 25.7 Grams | 25.7 Grams | 25.6 Grams | 25.6 Grams | 25.5 Grams | 25.5 Grams | 25.2 Grams | NC1=CC(N)N(NC(=O)Cn2cnc3scc(-c4cccs4)c3c2=O)C=C1 (stereo not drawn) [Compound 15, N-(2,4-Diaminopyridin-1(2H)-yl)-2-(4-oxo-5-(thiophen-2-yl)thieno[2,3-d]-pyrimidin-3(4H)-yl)acetamide] | 1.18 ± 0.032 µM | 
6 | 25.3 Grams | 25.3 Grams | 25.2 Grams | 25.2 Grams | 25.2 Grams | 25.1 Grams | 25.1 Grams | 24.8 Grams | 24.7 Grams | 24.6 Grams | 24.5 Grams | 24.2 Grams | COc1cccc(C2SCC(=O)N2NC(=O)Cn2cnc3scc(-c4cccs4)c3c2=O)c1OC (stereo not drawn) [Compound 8, N-(2-(2,3-Dimethoxyphenyl)-4-oxothiazolidin-3-yl)-2-(4-oxo-5-(thiophen-2-yl)thieno[2,3-d]pyrimidin-3(4H)-yl)acetamide] | 1.26 ± 0.052 µM | 
